According to US7659277B2, “Ubiquitin ligase inhibitors and methods related thereto” (Proteologies, Ltd., priority 2003, dated 2010):

target: T1, POSH (Homo sapiens, UniProt Q7Z6J0); experiment: Selectivity (% A in 1 μM), ubiquitin ligase activity of POSH; format: biochemical; details: % activity at 1 μM compound; control is related to 100% activity; HTS protocol; read-out: Selectivity (% A* in 1 μM) POSH
T1 construct: GST-POSH lot NB81/p.118 3.6 mg/ml; fused on or other part: GST tag, used for detection with anti-GST XL665
T1 sequence (Q7Z6J0 1-269 limits assumed): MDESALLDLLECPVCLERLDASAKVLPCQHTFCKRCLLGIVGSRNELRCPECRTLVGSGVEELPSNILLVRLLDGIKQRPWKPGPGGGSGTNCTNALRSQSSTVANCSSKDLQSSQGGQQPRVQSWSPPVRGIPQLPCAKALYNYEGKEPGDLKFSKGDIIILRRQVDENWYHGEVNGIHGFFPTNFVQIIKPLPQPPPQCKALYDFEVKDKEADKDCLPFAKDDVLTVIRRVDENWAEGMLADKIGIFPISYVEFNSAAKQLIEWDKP
Procedure: Experimental Protocols: 1. HTS Screening Assay Procedure • Microplates 10109D to 10114D compounds at 1 mM. • (Controls in column 1). • All compounds were perchase from ChemBridge corporation: ChemBridge corporation 16981 Via Tazon, Suite G San Diego, Calif. 92127 a. Microplates Labeling • Put labels to 6 PS U-bottom clear microplate. • Put labels to 18 black microplates (triplicats). b. Microplates Preparation • Put 100 μl GST-POSH at 33 nM in wells of the clear PS U-bottom microplates (exept wells A1-D1). • Negative control: place 100 μl dH2O in wells A1-D1. • (Positive control: place 100 μl GST-POSH at 33 nM in wells E1-H1). • Put 8 μl enzymes solution ×4 to black microplates (column 1 to 11). c. Incubation of E3 with Compounds • Transfer 5 μl of compounds (at 1 mM) to the microplates containing 100 μl GST-POSH. • Add 5 μl of DMSO to controls column 1. • Incubation 30 minutes at RT. d. […] 2. […] Microplates Labeling • Put labels to 4 clear PP clear microplate (18.2 μM, 9.1 uM, 1.82 uM, 910 nM,). • Put labels to 5 clear PS U-bottom clear microplate 4.44 μM, 909, 444, 91 and 44 nM) • Put labels to 15 black microplates (triplicates). f. Original Microplate Dilutions • Put DMSO 40 μl to (18.2 μM, 1.82 uM plates) and 20 ul to (9.1 uM, 910 nM plates. • Mix by pipetation the original microplate (3× up and down 45 μl). • Transfer 10 μl of compounds from the original microplate (at 91 μM) to the next microplate (=18.2 μM) on splitting apparatus. • Mix by pipetation the 18.2 uM microplate (3× up and down 45 μl). • Transfer 20 μl of compounds from the 18.2 uM microplate to the next microplate (=9.1 μM) on splitting apparatus. • Mix by pipetation the 9.1 uM microplate (3× up and down 45 μl). • Transfer 10 μl of compounds from the 9.1 uM microplate to the next microplate (=1.82 μM) on splitting apparatus. • Mix by pipetation the 1.82 uM microplate (3× up and down 45 μl). • Transfer 20 μl of compounds from the 1.82 uM microplate to the next microplate (=910 nM) on splitting apparatus • Mix by pipetation. g. Microplates Preparation • Put 123 μl GST-POSH at 33 nM in wells of the 5 clear PS U-bottom clear microplates. • Positive control: place 123 μl GST-POSH at 33 nM in well A12-h12 13 μl DMSO. • Negative control: place 123 μl dH2O in well B1 and 13 μl DMSO. • Put 8 μl enzymes solution ×4 to 15 black microplates. • Controls: put 8 μl enzymes solution ×4 to wells A1 to F1. h. Incubation of POSH with Compounds • Take 7 μl of compounds at original plate (91 μM) and put into the 4.44 μM labeled microplate containing 123 μl GST-POSH, on splitting apparatus. • Mix by pipetation (3× up and down 115 μl), note time. • Take 7 μl of compounds at 18.2 μM and put into the 910 nM labeled microplate containing 123 μl GST-POSH, on splitting apparatus. • Mix by pipetation (3× up and down 115 μl), note time. • Take 7 μl of compounds at 9.1 μM and put into the 444 nM labeled microplate containing 123 μl GST-POSH, on splitting apparatus. • Mix by pipetation (3× up and down 115 μl), note time. • Take 7 μl of compounds at […] and put into the 91 nM labeled microplate containing 123 μl GST-POSH, on splitting apparatus. • Mix by pipetation (3× up and down 115 μl), note time. • Take 7 μl of compounds at 91.0 nM and put into the 44 nM labeled microplate containing 123 μl GST-POSH, on splitting apparatus. • Mix by pipetation (3× up and down 115 μl), note time. • Incubation 30 minutes at RT. i.

Going from O=C(/C=C/c1cccnc1)c1ccc(C(=O)/C=C/c2cccnc2)cc1 [Compound 92] to O=C(Cc1ccccc1)N1N=CCC1(O)c1ccc(F)cc1 (stereo not drawn) [Compound 94], the remaining activity at 1 µM rises from 21% to 71%.

First: Cc1[nH]c(=O)c(C(=O)/C=C/c2ccccc2F)c2c1CCCC2 [Compound 95]
Second: COc1cc(C2Nc3ccccc3NC3=C2C(=O)CC(C)(C)C3)cc(Br)c1O (stereo not drawn) [Compound 102]
The remaining activity at 1 µM of the first is lower: 12% for the first, 52% for the second.

First: COc1ccc(C(=O)CC2=C(O)C(=O)c3ccccc3C2=O)cc1 [Compound 89]
Second: COc1ccc(Nc2ccc(O)c3c2C(=O)c2ccccc2C3=O)cc1 [Compound 100]
The remaining activity at 1 µM of the first is lower: 45% for the first, 99% for the second.

Compared with O=C1NC(=O)N(c2ccccc2)C(=O)/C1=C\c1ccc2c(c1)OCO2 [Compound 4], CN(C)c1ccc(/C=C2/C(=O)NC(=O)N(C3CCCCC3)C2=O)cc1 [Compound 3] is lower in remaining activity at 1 µM: 48% for the first, 47% for the second.

Going from Cc1ccc(C(=O)NN=C2CCC(=NNC(=O)c3ccc(C)cc3)CC2)cc1 [Compound 93] to O=C(NCc1ccc(Cl)cc1)C(=O)Nc1ccccc1 [Compound 104], the remaining activity at 1 µM rises from 21% to 111%.

With COC(=O)C1=C(C(=O)OC)SC(=C2C(=S)C(C)(C)N(C(C)=O)c3cc(C)ccc32)S1 [Compound 99] the remaining activity at 1 µM was 36%.

same assay, conditions: read-out: Selectivity (% A* in 1 μM) POSH

First: O=C(NC(C(Cl)(Cl)Cl)S(=O)(=O)c1ccccc1)c1ccc(Cl)cc1Cl (stereo not drawn) [Compound 88]
Second: O=c1oc2ccccc2c(O)c1C(=S)Nc1ccccc1 [Compound 96]
The remaining activity at 1 µM of the first is higher: 172% for the first, 105% for the second.

Compared with Cc1cc(OC(=O)Cn2c(=O)sc3ccccc32)ccc1Cl [Compound 103], O=C(O)COc1ccc2c(c1)oc(=O)c1ccccc12 [Compound 85] is lower in remaining activity at 1 µM: 102% for the first, 26% for the second.

Going from O=C(Nc1cccc2c(NC(=O)C3C4CCCCC43)cccc12)C1C2CCCCC21 (stereo not drawn) [Compound 97] to Cc1cc(O)c(C(=O)/C=C/c2cccc(I)c2)c(=O)o1 [Compound 87], the remaining activity at 1 µM rises from 13% to 33%.

For O=C1c2ccccc2-c2nc3nonc3nc21 [Compound 91], the remaining activity at 1 µM was 11%.
